Results taken from patent US8969573B2, “Compounds for the inhibition of cellular proliferation” (President and Fellows of Harvard College, priority 2010, dated 2015).
Read-outs that look alike come from different tables or passages of the source.

What was measured:
[1] = tested on: CRL2351 human breast cancer; assay: SRB assay (inhibition of cell proliferation); type: cell-based; conditions: CRL2351 human breast cancer cells
Description: (§1) A sulfur rhodamine B (SRB) assay was used to determine the extent of inhibition of cell proliferation as a measure of the anti-cancer activity of compounds of the present disclosure. The reagent SRB binds to cellular proteins and absorbs light proportionally to the cellular protein content, which is a surrogate marker for the number of cells. According to aspects of the present disclosure, the assay can be used to with any cancer cell line including breast cancer cell lines, prostate cancer cell lines, melanoma cell lines, lung cancer cell lines or any other cell lines of the cancers described herein.
(§2) The following protocol was used to determine the growth characteristics of certain cell lines CRL2351 human breast cancer and CRL2813 human melanoma from which cell lines having doubling times less than 48 hours were selected for growth inhibition experiments. […] The following materials were used in addition to the cancel cell lines: complete (5% fetal calf serum added) tissue culture media, 96-well tissue culture plates, Sulforhodamine B dye (SRB, 0.57% w/w), […] (TCA, 10%), acetic acid glacial (1%) and 10 mM Tris base. The cells were prepared and plated. Cancer cells were grown to 80% confluency in an incubator. The cells were trypsinized per standard protocol or as needed for each cell line. The trypsin was neutralized, cells dissociated and counted. Each cell line was plated at a density of 500, 1000 and 3000 cells per well (six wells each) in five separate plates. The cells were then returned to the incubator. One plate was then removed each day starting day one after plating. 100 μl of 10% TCA was then added and the cells were fixed at 4° C. until all the cells were fixed. […] The cell growth for vehicle treatment is considered to be 100%. The optical density was then measured and plotted for each starting cell number and cell line against time. The percent cell growth inhibition was calculated as 100 minus the % of control cell growth. The % of control cell growth=((mean OD sample−Mean OD day 0)/(mean OD vehicle−Mean OD day 0))*100.

[2] = tested on: CRL2813 human melanoma; assay: SRB assay (inhibition of cell proliferation); type: cell-based
Description: as §1, §2

[3] = target: eIF4E/eIF4G interaction (Homo sapiens, UniProt P06730); assay: Fluorescent polarization assay; type: binding; conditions: FITC eIF4G peptide and recombinant eIF4E, ratio to Z (4EGI-1 = 1)
Sequence of eIF4E/eIF4G interaction (P06730 whole entry): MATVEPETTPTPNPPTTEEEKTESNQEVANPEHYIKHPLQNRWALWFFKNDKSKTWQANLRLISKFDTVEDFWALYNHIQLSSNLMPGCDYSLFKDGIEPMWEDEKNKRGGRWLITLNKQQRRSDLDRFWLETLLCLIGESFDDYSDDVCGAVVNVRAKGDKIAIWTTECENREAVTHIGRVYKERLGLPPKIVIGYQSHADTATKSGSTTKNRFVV
Procedure: The difference between the two measurement yields net polarization which is considered full signal of the assay (100% control). […] The activity of compound at each concentration is determined by comparing the fluorescent polarization (FP) signal in the presence of compound to the control (no compound) value. The percent inhibition is =100-((FP compound/FP control)*100).

[4] = Homo sapiens, summary table, read-out: IC50 [μM} CRL2351
[5] = Homo sapiens, CRL2813, CRL2813 human melanoma cells, summary table, read-out: IC50 [μM} CRL2813
[6] = summary table, read-out: IC50 [μM} CRL2351
[7] = CRL2813 human melanoma cells, summary table, read-out: IC50 [μM} CRL2813
[8] = Tables 1, 4, 5, read-out: SRB-IC50 (μM) 2351
[9] = CRL2813 human melanoma cells, Tables 1, 4, 5, read-out: SRB-IC50 (μM) 2813

| Molecule | Fp (ratio to Z) [3] | IC50 [1, 8] [µM] | IC50 [2, 9] [µM] | further results |
| --- | --- | --- | --- | --- |
| O=C(O)/C(Cc1ccccc1[N+](=O)[O-])=N/Nc1nc2c(s1)CCc1cc(Cl)c(Cl)cc1-2 [PC-159F, 2-(2-(7,8-dichloro-4,5-dihydronaphtho[1,2-d]thiazol-2-yl)hydrazono)-3-(2-nitrophenyl)propanoic acid] | 1.05 | – | – | IC50 [1, 4]: < 1 µM; IC50 [2, 5]: < 1 µM |
| 2-(2-(6,7-dichloro-4,5-dihydronaphtho[1,2-d]thiazol-2-yl)hydrazono)-3-(2-nitrophenyl)propanoic acid [PC-163S] | – | – | – | IC50 [1, 6]: 3 µM; IC50 [2, 7]: 3 µM |
| O=C(O)/C(Cc1ccccc1[N+](=O)[O-])=N\Nc1nc2c(s1)COc1c-2ccc(Cl)c1Cl [PC-202S, 2-(2-(6,7-dichloro-4H-chromeno[4,3-d]thiazol-2-yl)hydrazono)-3-(2-nitrophenyl)propanoic acid] | – | – | – | IC50 [2, 5]: 4.5 µM |
| O=C(O)C(Cc1ccccc1[N+](=O)[O-])=NNc1nc(-c2ccc(OCCCCCBr)cc2)cs1 (mixture of isomers) [KH148] | – | < 0.54 | 0.8 | – |
| [N-]=[N+]=Nc1ccc(-c2csc(NN=C(Cc3ccccc3[N+](=O)[O-])C(=O)O)n2)cc1 [KH-8] | 0.99 | – | – | – |
| O=C(O)C(Cc1ccccc1[N+](=O)[O-])=NNc1nc(-c2cccc(OCCCBr)c2)cs1 (single isomer, unassigned) [KH154-f] | – | 3.5 | 0.7 | – |
| COc1ccc(-c2sc(N/N=C(/Cc3ccccc3[N+](=O)[O-])C(=O)O)nc2-c2ccc(C3CCCCC3)cc2)cc1 [KY-612SF] | 1 | – | – | IC50 [2, 7]: 0.1 µM |
| O=C(O)/C(Cc1ccccc1[N+](=O)[O-])=N/Nc1nc2c(s1)COc1c-2ccc(Cl)c1Cl [PC-202F, 2-(2-(6,7-dichloro-4H-chromeno[4,3-d]thiazol-2-yl)hydrazono)-3-(2-nitrophenyl)propanoic acid] | – | – | – | IC50 [2, 5]: < 1 µM |
| 2-(2-(7,8-dichloro-4H-chromeno[4,3-d]thiazol-2-yl)hydrazono)-3-(2-nitrophenyl)propanoic acid [PC-204S] | – | – | – | IC50 [1, 6]: < 1 µM; IC50 [2, 7]: 3 µM |
| O=C(O)C(Cc1ccccc1[N+](=O)[O-])=NNc1nc(-c2cccc(OCCBr)c2)cs1 (single isomer, unassigned) [KH153-f] | – | 13.2 | 8 | – |
| O=C(O)C(Cc1ccccc1[N+](=O)[O-])=NNc1nc(-c2ccc(Br)cc2)cs1 [KH-53S] | 0.61 | – | – | – |
| O=C(O)[C@@H](Cc1cccc([N+](=O)[O-])c1)Nc1nc(-c2ccc(Cl)c(Cl)c2)cs1 [KY-365] | 0.82 | – | – | IC50 [1, 4]: 3 µM |
| O=C(O)C(Cc1ccccc1[N+](=O)[O-])=NNc1nc(-c2ccccc2OCCCCCBr)cs1 (single isomer, unassigned) [KH152-f] | – | 2.4 | < 1 | – |
| O=C(O)C(Cc1ccccc1[N+](=O)[O-])=NNc1nc(-c2ccc(OCCCCOc3ccc(Cl)cc3)cc2)cs1 [KH-336S] | 0.96 | – | – | – |
| O=C(O)c1nn(-c2nc(-c3ccc(Cl)c(Cl)c3)cs2)c2ccc([N+](=O)[O-])cc12 [RYF-440] | 1.3 | – | – | – |
| O=C(O)C(Cc1ccccc1[N+](=O)[O-])=NNc1nc(-c2ccccc2OCCCBr)cs1 (mixture of isomers) [KH150] | – | 2.8 | 0.9 | – |
| COc1cc2c(cc1OC)-c1nc(N/N=C(/Cc3ccccc3[N+](=O)[O-])C(=O)O)sc1CC2 [PC-195S, (Z)-2-(2-(7,8-dimethoxy-4,5-dihydronaphtho[1,2-d]thiazol-2-yl)hydrazono)-3-(2-nitrophenyl) propanoic acid] | – | – | – | IC50 [1, 4]: 4 µM; IC50 [2, 5]: 7.5 µM |
| O=C(O)C(Cc1ccccc1[N+](=O)[O-])=NNc1nc(-c2ccccc2OCCCCCBr)cs1 (single isomer, unassigned) [KH152-s] | – | 7.8 | 4.5 | – |
| 2-(2-(7,8-dichloro-4,5-dihydronaphtho[1,2-d]thiazol-2-yl)hydrazono)-3-(2-nitrophenyl)propanoic acid [PC-159S] | – | – | – | IC50 [1, 6]: 12.5 µM; IC50 [2, 7]: 4 µM |
| O=C(O)/C(Cc1ccccc1[N+](=O)[O-])=N\Nc1nc2c(s1)CSc1cc(Cl)c(Cl)cc1-2 [PC-218S] | – | – | – | IC50 [1, 4]: 5.5 µM; IC50 [2, 5]: 3 µM |

| Molecule | Fp (ratio to Z) [3] | IC50 [1, 8] [µM] | IC50 [2, 9] [µM] | further results |
| --- | --- | --- | --- | --- |
| O=C(O)C(Cc1ccccc1[N+](=O)[O-])=NNc1nc(-c2cccc(OCCCCBr)c2)cs1 (mixture of isomers) [KH155] | – | 8.6 | 10.8 | – |
| O=C(O)C(Cc1ccccc1[N+](=O)[O-])=NNc1nc(-c2ccc(OCCCBr)cc2)cs1 (single isomer, unassigned) [KH147-s] | – | 11.2 | 5.5 | – |
| O=C(O)C(Cc1ccccc1[N+](=O)[O-])=NNc1nc(-c2cccc(OCCBr)c2)cs1 (single isomer, unassigned) [KH153-s] | – | 14 | – | – |
| O=C(O)C(Cc1ccccc1[N+](=O)[O-])=NNc1nc(-c2ccc(OCCCBr)cc2)cs1 (single isomer, unassigned) [KH147-f] | – | 0.5 | 1.1 | – |
| O=C(O)/C(Cc1ccccc1[N+](=O)[O-])=N/Nc1nc2c(s1)COc1cc(Cl)c(Cl)cc1-2 [PC-204F, 2-(2-(7,8-dichloro-4H-chromeno[4,3-d]thiazol-2-yl)hydrazono)-3-(2-nitrophenyl)propanoic acid] | – | – | – | IC50 [1, 4]: 2 µM |
| O=C(O)/C(Cc1ccccc1[N+](=O)[O-])=N\Nc1nc(-c2ccc(N3CCOCC3)c(Br)c2)cs1 [KH-287II-S] | 0.62 | – | – | – |
| 2-(2-(6,7-dichloro-4,5-dihydronaphtho[1,2-d]thiazol-2-yl)hydrazono)-3-(2-nitrophenyl)propanoic acid [PC-163F] | – | – | – | IC50 [1, 6]: < 1 µM; IC50 [2, 7]: < 1 µM |
| O=C(O)/C(Cc1ccccc1[N+](=O)[O-])=N/Nc1nc2c(s1)CSc1c-2ccc(Cl)c1Cl [PC-218F] | – | – | – | IC50 [1, 4]: < 1 µM; IC50 [2, 5]: 8 µM |
| O=C(O)C(Cc1ccccc1[N+](=O)[O-])=NNc1nc(-c2ccc(OCCCOc3ccc(Cl)cc3)cc2)cs1 [KH-332S] | 1.09 | – | – | – |
| O=C(O)C(Cc1ccccc1[N+](=O)[O-])=NNc1nc(-c2ccc(OCCBr)cc2)cs1 (single isomer, unassigned) [KH146-s] | – | 14.5 | 14 | – |
| CCN(CC)c1ccc(-c2csc(N/N=C(\Cc3ccccc3[N+](=O)[O-])C(=O)O)n2)cc1 [KY-615F] | – | – | – | IC50 [1, 6]: 5.7 µM; IC50 [2, 7]: 18.8 µM |
| O=C(O)C(Cc1ccccc1[N+](=O)[O-])=NNc1nc(-c2ccc(Cl)c(Cl)c2)cs1 [Compound 4EGI-1, reference compound] | – | – | – | IC50 ([1]; Homo sapiens, Tables 1, 4, 5, read-out: SRB-IC50 (μM) 2351): 6.5 µM; IC50 [1, 4]: 5 ± 1.6 µM; IC50 ([2]; Homo sapiens, CRL2813, CRL2813 human melanoma cells, Tables 1, 4, 5, read-out: SRB-IC50 (μM) 2813): 1.3 µM; IC50 [2, 5]: 3.8 ± 1.06 µM |
| O=C(O)C(=NNc1nc(-c2ccc(Cl)c(Cl)c2)cs1)c1cccc([N+](=O)[O-])c1 (stereo in doubt) [KY-788-Z, (Z)-2-(2-(4-(3,4-dichlorophenyl)thiazol-2-yl)hydrazono)-2-(3-nitrophenyl)acetic acid] | 0.86 | – | – | IC50 [1, 4]: > 20 µM |
| O=C(O)C(Cc1ccccc1[N+](=O)[O-])=NNc1nc(-c2ccccc2OCCBr)cs1 (single isomer, unassigned) [KH149-s] | – | 6 | 11.5 | – |
| O=C(O)C(Cc1ccccc1[N+](=O)[O-])=NNc1nc(-c2ccc(OCCBr)cc2)cs1 (single isomer, unassigned) [KH146-f] | – | < 0.54 | 2.1 | – |
| O=C(O)C(Cc1ccccc1[N+](=O)[O-])=NNc1nc(-c2cccc(OCCCCCBr)c2)cs1 (mixture of isomers) [KH156] | – | 9.1 | 6 | – |
| O=C(O)C(Cc1ccccc1[N+](=O)[O-])=NNc1nc(-c2ccccc2OCCBr)cs1 (single isomer, unassigned) [KH149-f] | – | 1 | 1 | – |
| O=C(O)C(Cc1ccccc1[N+](=O)[O-])=NNc1nc(-c2cccc(OCCCBr)c2)cs1 (single isomer, unassigned) [KH154-s] | – | 1.5 | – | – |
| O=C(O)C(Cc1ccccc1[N+](=O)[O-])=NNc1nc(-c2ccc(OCCCCCOc3ccccc3)cc2)cs1 [KH-333S] | 0.96 | – | – | – |
| O=C(O)/C(Cc1ccccc1[N+](=O)[O-])=N\Nc1nc(-c2ccc(OCCCCCBr)cc2)cs1 [KH-148I] | 1.50 | – | – | IC50 [2, 5]: 0.9 µM |
